The values below come from ChEMBL document CHEMBL1155947, “Discovery of a novel series of benzoic acid derivatives as potent and selective human beta3 adrenergic receptor agonists with good oral bioavailability. 3. Phenylethanolaminotetraline (PEAT) skeleton containing biphenyl or biphenyl ether moiety” (J Med Chem, 2008).

The EC50 is the concentration giving half of the maximal effect. In general, Cmax refers to the highest concentration seen after dosing. Broadly, the AUC(0-t) is exposure summed from dosing to a finite time, without extrapolation to infinity. What is called half-life is the time in which the quantity being followed falls by half. The clearance is the rate of elimination divided by the concentration. One may read the bioavailability as the share of a dose that reaches the circulation, judged against a reference dose that is usually intravenous. Usually inhibition in vivo stands for the drop in the measured response relative to a control, in per cent.

Series [1] addresses Beta-3 adrenergic receptor (Homo sapiens, UniProt P13945). The experiment in a line: Agonist activity at human cloned beta3 adrenergic receptor expressed in CHO cells assessed as cAMP accumulation. Format: functional, cell-based. (In general: cAMP levels reflect the balance of adenylyl cyclase and phosphodiesterase activity.)
The species named for another series is Homo sapiens. Description: Ratio of EC50 for human cloned beta-1 adrenergic receptor to EC50 for human cloned beta3 adrenergic receptor.
The target of series [2] is Beta-2 adrenergic receptor (Homo sapiens, UniProt P07550). The experiment in a line: Agonist activity at human beta2 adrenergic receptor expressed in CHO cells assessed as cAMP accumulation. Format: functional, cell-based.
The nature of series [3]: Cmax in dog at 0.2 mg/kg, po by cassette assay. Format: ADME, organism-based, Canis lupus familiaris. Also noted: dose 0.2 mg/kg, route oral. Particulars: in vivo.
A short description of series [4]: AUC (0 to 24 hrs) in dog at 0.2 mg/kg, po by cassette assay. Format: ADME, organism-based, Canis lupus familiaris. Also noted: time < 24 hr, dose 0.2 mg/kg, route oral. Particulars: plasma.
Series [5] relates to Canis familiaris. Description: Ratio of Cmax for drug to Cmax for 3-[((7S)-7-{[(2R)-2-(3-Chlorophenyl)-2-hydroxyethyl]amino}-5,6,7,8-tetrahydro-2-naphthalenyl)oxy]benzoic acid hydrochloride in dog at 0.1 or 0.20 mg/kg, po by cassette dosing assay. Format: ADME, organism-based, Canis lupus familiaris. Also noted: dose 0.2 mg/kg, route oral. Conditions: in vivo, 0.2 mg/kg.
In series [6] the test system is Canis familiaris. Description: Ratio of AUC for drug to AUC for 3-[((7S)-7-{[(2R)-2-(3-Chlorophenyl)-2-hydroxyethyl]amino}-5,6,7,8-tetrahydro-2-naphthalenyl)oxy]benzoic acid hydrochloride in dog at 0.1 or 0.20 mg/kg, po by cassette dosing assay. Format: ADME, organism-based, Canis lupus familiaris. Also on record: dose 0.2 mg/kg, route oral. Conditions: in vivo, 0.2 mg/kg.

Series [7] in a line: Cmax in monkey at 1.0 mg/kg, po by cassette assay. Format: ADME, organism-based, Macaca mulatta. Also on record: dose 1 mg/kg, route oral. Particulars: rhesus monkey, in vivo.
Series [8] in a line: AUC (0 to 24 hrs) in monkey at 1.0 mg/kg, po by cassette assay. Format: ADME, organism-based, Macaca mulatta. Particulars: rhesus monkey, plasma. Also on record: time < 24 hr, dose 1 mg/kg, route oral.
A short description of series [9]: Cmax in rat at 1.0 mg/kg, po by cassette assay. Format: ADME, organism-based. Conditions: in vivo. Also on record: dose 1 mg/kg, route oral.
A short description of series [10]: AUC (0 to 24 hrs) in rat at 1.0 mg/kg, po by cassette assay. Format: ADME, organism-based. Also on record: time < 24 hr, dose 1 mg/kg, route oral. Particulars: plasma.
Series [11] is described as follows: Terminal half life in rat at 0.51 mg/kg, iv by cassette assay. Format: ADME, organism-based. Conditions: in vivo. Also noted: dose 0.51 mg/kg, route intravenous.
Series [12] is described as follows: Total clearance in rat at 0.51 mg/kg, iv by cassette assay. Format: ADME, organism-based. Also on record: dose 0.51 mg/kg, route intravenous. Conditions: in vivo.
A short description of series [13]: Oral bioavailability in rat at 0.51 mg/kg by cassette assay. Format: ADME, organism-based. Particulars: in vivo.
Series [14] is described as follows: Terminal half life in monkey at 0.32 mg/kg, iv by cassette assay. Conditions: rhesus monkey, in vivo. Format: ADME, organism-based, Macaca mulatta. Also noted: dose 0.32 mg/kg, route intravenous.
A short description of series [15]: Total clearance in monkey at 0.32 mg/kg, iv by cassette assay. Format: ADME, organism-based, Macaca mulatta. Conditions: rhesus monkey, in vivo. Also on record: dose 0.32 mg/kg, route intravenous.
A short description of series [16]: Oral bioavailability in monkey at 0.32 mg/kg by cassette assay. Format: ADME, organism-based, Macaca mulatta. Conditions: rhesus monkey, in vivo.
The nature of series [17]: Terminal half life in dog at 0.1 mg/kg, iv by cassette assay. Format: ADME, organism-based, Canis lupus familiaris. Also on record: dose 0.1 mg/kg, route intravenous. Particulars: in vivo.
The nature of series [18]: Total clearance in dog at 0.1 mg/kg, iv by cassette assay. Format: ADME, organism-based, Canis lupus familiaris. Also on record: dose 0.1 mg/kg, route intravenous. Conditions: in vivo.
The nature of series [19]: Oral bioavailability in dog at 0.1 mg/kg by cassette assay. Format: ADME, organism-based, Canis lupus familiaris. Particulars: in vivo.
Series [20] concerns the target Beta-3 adrenergic receptor (Canis lupus familiaris, UniProt O02662). Description: Agonist activity at dog beta3 adrenergic receptor expressed in CHO cells assessed as cAMP accumulation. Format: functional, cell-based.
Series [21] deals with Canis familiaris. The experiment in a line: Inhibition of carbachol-induced increase of intravesical pressure in Beagle dog OAB model at 32 ug/kg,. Format: functional. Conditions: Canis lupus familiaris.
Series [22] is described as follows: Protein binding in Beagle dog serum at 32 ug/kg, iv. Format: ADME, organism-based, Canis lupus familiaris. Conditions: 0.032 mg/kg, read-out: PB (converted).
The nature of series [23]: Selectivity for human beta3 adrenergic receptor over dog beta3 adrenergic receptor.
Series [24] addresses Beta-1 adrenergic receptor (Homo sapiens, UniProt P08588).
Description: Agonist activity at human cloned beta-1 adrenergic receptor expressed in CHO cells assessed as cAMP accumulation
Series [25] in a line: Oral bioavailability in rat at 0.83 mg/kg. Format: ADME, organism-based. Conditions: in vivo.
Series [26] can be described thus: Oral bioavailability in dog at 0.83 mg/kg. Format: ADME, organism-based, Canis lupus familiaris. Conditions: in vivo.
Series [27] can be described thus: Oral bioavailability in monkey at 0.83 mg/kg. Format: ADME, organism-based, Macaca mulatta. Particulars: rhesus monkey, in vivo.

Sequence of Beta-3 adrenergic receptor (Homo sapiens, UniProt P13945) (P13945 whole entry): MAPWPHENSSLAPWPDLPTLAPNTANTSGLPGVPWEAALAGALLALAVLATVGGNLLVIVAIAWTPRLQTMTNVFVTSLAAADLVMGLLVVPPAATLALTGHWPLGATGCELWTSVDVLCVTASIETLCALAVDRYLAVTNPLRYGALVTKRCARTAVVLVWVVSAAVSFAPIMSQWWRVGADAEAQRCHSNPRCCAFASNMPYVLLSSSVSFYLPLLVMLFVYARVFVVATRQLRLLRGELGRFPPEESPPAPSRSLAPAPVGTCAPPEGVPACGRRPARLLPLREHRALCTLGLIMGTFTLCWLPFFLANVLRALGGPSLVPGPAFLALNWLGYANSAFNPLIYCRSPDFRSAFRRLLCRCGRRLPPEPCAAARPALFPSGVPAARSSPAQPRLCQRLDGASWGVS
Sequence of Beta-2 adrenergic receptor (P07550 whole entry): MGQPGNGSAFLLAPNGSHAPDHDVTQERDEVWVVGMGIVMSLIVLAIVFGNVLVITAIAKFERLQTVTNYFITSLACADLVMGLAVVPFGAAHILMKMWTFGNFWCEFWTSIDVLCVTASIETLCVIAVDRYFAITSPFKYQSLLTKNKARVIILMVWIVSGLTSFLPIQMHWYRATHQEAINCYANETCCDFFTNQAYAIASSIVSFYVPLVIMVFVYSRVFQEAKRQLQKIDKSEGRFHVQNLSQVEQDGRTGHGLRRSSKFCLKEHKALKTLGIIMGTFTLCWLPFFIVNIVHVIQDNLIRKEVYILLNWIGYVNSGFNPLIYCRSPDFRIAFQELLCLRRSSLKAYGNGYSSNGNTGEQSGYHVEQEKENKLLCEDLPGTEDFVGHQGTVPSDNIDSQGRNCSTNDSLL
Sequence of Beta-3 adrenergic receptor (Canis lupus familiaris, UniProt O02662) (O02662 whole entry): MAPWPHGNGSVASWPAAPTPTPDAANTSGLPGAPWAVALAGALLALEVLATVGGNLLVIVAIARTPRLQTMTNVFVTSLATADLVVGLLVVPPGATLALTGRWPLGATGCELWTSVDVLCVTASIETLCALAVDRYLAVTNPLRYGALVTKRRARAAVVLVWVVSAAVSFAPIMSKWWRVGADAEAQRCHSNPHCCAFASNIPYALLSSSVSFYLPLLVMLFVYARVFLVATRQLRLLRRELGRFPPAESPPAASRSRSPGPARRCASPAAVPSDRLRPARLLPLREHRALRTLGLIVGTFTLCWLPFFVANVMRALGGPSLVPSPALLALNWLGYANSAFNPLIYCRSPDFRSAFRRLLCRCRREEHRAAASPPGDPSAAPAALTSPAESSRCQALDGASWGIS
Sequence of Beta-1 adrenergic receptor (P08588 whole entry): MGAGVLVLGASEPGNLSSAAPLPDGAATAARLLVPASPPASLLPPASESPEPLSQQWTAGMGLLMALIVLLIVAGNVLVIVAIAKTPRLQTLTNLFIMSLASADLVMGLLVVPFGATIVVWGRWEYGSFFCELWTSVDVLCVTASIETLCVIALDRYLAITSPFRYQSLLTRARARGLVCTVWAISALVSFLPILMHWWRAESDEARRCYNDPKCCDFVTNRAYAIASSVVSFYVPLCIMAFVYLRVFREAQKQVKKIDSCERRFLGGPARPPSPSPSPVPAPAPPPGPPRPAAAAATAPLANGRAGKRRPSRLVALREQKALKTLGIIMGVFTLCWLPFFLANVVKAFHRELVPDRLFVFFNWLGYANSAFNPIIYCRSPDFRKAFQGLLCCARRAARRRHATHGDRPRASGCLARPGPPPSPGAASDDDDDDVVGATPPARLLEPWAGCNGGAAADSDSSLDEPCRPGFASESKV

For `COc1ccc(Oc2ccc3c(c2)C[C@@H](NC[C@H](O)c2ccc(Cl)nc2)CC3)cc1C(=O)O`, the half-maximal effective concentration (EC50) is 3.6 nM in [1], more than 1000 nM in [2], 46 nM in series [20] and more than 1000 nM in series [24]. The Ratio EC50 in the series listed under Homo sapiens is more than 277. For the same compound, the Cmax in series [3] is 64.4 ng/mL; in series [7] it was 59 ng/mL; in series [9], 164 ng/mL. The AUC(0-t) at 24 h in series [4] is 860 ng·h/mL; in [8], 313 ng·h/mL; in series [10], 1940 ng·h/mL. For the same compound, the Ratio in the series with Canis familiaris [5] was found to be 0.5. Moreover, in the series with Canis familiaris [6], the “Ratio AUC” value amounted to 0.48. For the same compound, the half-life in [11] was 15.3 h; in [14] it was 8.2 h; in series [17], 5.9 h. Further, the clearance in series [12] came to 2.5 mL/min/kg; in [15], 15.7 mL/min/kg; in series [18], 3.1 mL/min/kg. For the same compound, the results for the bioavailability in series [13], in series [16] and in [19] were 27.3%, 28.8% and 76.8%, respectively. Also, testing at 0.032 mg/kg in the series on Canis familiaris [21] gave an inhibition in vivo of 57%. In addition, the fraction unbound in series [22] was 0.1. Further, in series [23], the Selectivity ratio was 12.8.
`CCOC(=O)COc1ccc2c(c1)C[C@@H](NC[C@H](O)c1cccc(Cl)c1)CCC2`: the bioavailability in [25] was 29%; in series [26], 73%; in [27], 35%. Further, in the series on Canis familiaris [21], 0.032 mg/kg produced 40.8% inhibition in vivo. In [22], the fraction unbound was 0.06.
